We go through four molecules from US4138485A, “Phenylalanine derivatives” (Kyowa Hakko Kogyo Kabushiki Kaisha, priority 1976, dated 1979).

Some results are limits rather than exact numbers.

One data set is described as follows: Acute toxicity in rats. The following applies: in vivo; rat, oral administration, after one week; read-out: Acute Toxicity (LD50), C. The method in brief: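 Male Wistar rats (~200 g), groups of 5, given compounds orally; survival ratio recorded after one week.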
Data set [1] has as its system hyperlipemia induced by Triton. Description: Cholesterol-lowering activity on hyperlipemia induced by Triton in mice. The class given is in vivo, mice (male dd-strain). The following applies: Mus musculus, po, 43 h, read-out: Ratio of the reduction of cholesterol. Put shortly:
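Serum cholesterol was read colorimetrically at 620 mμ (Zurkowski method, Shibata modification) from blood taken 43 h after Triton challenge. Compound was given p.o. at 100 mg/kg twice, right after Triton and at 20 h, to groups of nine male dd mice weighing 19–21 g.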

Another data set has as its system Cholesterol in the serum. Description: Cholesterol-lowering activity on normal rats of Wistar strain (serum cholesterol, liver weight). The class given is in vivo, rats (male Wistar strain). The following applies: 0.3% in diet; for B - Ratio of decrease of liver weight: continuous administration for 4 days; for C - Ratio of decrease of cholesterol / D - Ratio of increase of liver weight: continuous administration for 14 days. Put shortly:
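Male Wistar rats (150–180 g), groups of 5; serum separated from blood taken by decapitation. Serum cholesterol measured by Zurkowski's method as modified by Shibata; livers excised and weighed. Values expressed as % of normal rats fed powdered diet without compound.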

The nature of a further data set: Acute toxicity in mice. To be noted: in vivo; mouse, oral administration, after one week; read-out: Acute Toxicity (LD50), A. The method in brief: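 Male dd-strain mice (18 to 24 g), groups of 5, dosed orally or intraperitoneally with test compounds. Survival ratio recorded one week after administration.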
A further data set relates to Mouse. In words: Tonic convulsion of hind paw of mice (stimulus by hand touch). Type of data set: in vivo, mice (male dd-strain). To be noted: oral, 30 to 360 minutes. The method, then: (1) Acute toxicity and tonic convulsion in hind paw:
The acute toxicity and tonic convulsion occured by stimulus by hand touch were determined in the following manner to give the results shown in Table 2.
(c) Tonic convulsion of hind paw of mice:
38 Groups, each consisting of 5 mice (male dd-strain, weight -- 18 to 24 g), were used for the test and control groups. The compounds shown in Table 2 were orally administered to the mice. At 30, 60, 120, 180 and 360 minutes after the administration, stimulus by hand touch was given to the mice and the tonic convulsion was observed.

Turning to `COC(=O)[C@H](Cc1ccccc1)NC(=O)SCc1ccc(F)cc1` [Compound 12, N-(4-fluorobenzylthiocarbonyl)-L-phenylalanine methylester], the results for the LD50 at 168 h in “Acute toxicity in rats” and in the data set “Acute toxicity in mice” were more than 100 mg/kg and more than 1000 mg/kg, respectively. For the same molecule, the inhibition in vivo at 100 mg/kg in data set [1] was determined as 76%. In addition, the “B - Ratio of decrease of liver weight” value in the data set on Cholesterol in the serum is on record as 45.9%. For the same molecule, the Tonic convulsion result in the data set on Mouse (D = 1000 mg/kg) is listed as “+”.

With `COC(=O)[C@H](Cc1ccccc1)NC(=O)SCc1ccccc1` [Compound 18, N-benzylthiocarbonyl-L-phenylalanine methylester], the LD50 – broadly, the dose at which mortality reaches 50% – at 168 h in “Acute toxicity in rats” was more than 200 mg/kg. Further, the inhibition in vivo at 100 mg/kg in data set [1] came to 80%. For the same molecule, in the data set on Cholesterol in the serum, the “B - Ratio of decrease of liver weight” value was 39%, the “C - Ratio of decrease of cholesterol” value is 3.0% and the “D - Ratio of increase of liver weight” value amounted to 92%. For the same molecule, the LD50 at 168 h in the data set “Acute toxicity in mice” is more than 1000 mg/kg. In addition, in the data set with Mouse (D = 500 mg/kg), the Tonic convulsion entry was “+”.

As to `O=C(N[C@@H](Cc1ccccc1)C(=O)O)SCc1ccccc1` [Compound 16, N-benzylthiocarbonyl-L-phenylalanine], the LD50 at 168 h in “Acute toxicity in rats” was more than 200 mg/kg; in “Acute toxicity in mice”, more than 1000 mg/kg. Also, the inhibition in vivo at 100 mg/kg in data set [1] worked out at 86%. Further, the “C - Ratio of decrease of cholesterol” value with Cholesterol in the serum was found to be 9.2%. In addition, the “D - Ratio of increase of liver weight” value in the data set with Cholesterol in the serum stood at 79%. For the same molecule, the Tonic convulsion result in the data set on Mouse (D = 500 mg/kg) is reported as “+”.

Consider `O=C(NC(Cc1ccccc1)C(=O)O)SCc1ccccc1` (racemic) [Compound 17, N-benzylthiocarbonyl-D,L-phenylalanine], for which the LD50 at 168 h is more than 100 mg/kg in the data set “Acute toxicity in rats” and more than 1000 mg/kg in the data set “Acute toxicity in mice”. In addition, the inhibition in vivo at 100 mg/kg in data set [1] came to 95%. The “B - Ratio of decrease of liver weight” value in the data set with Cholesterol in the serum is given as 35.2%. In addition, the Tonic convulsion entry in the data set on Mouse (D = 1000 mg/kg) is “+”.
